Data reported in ChEMBL document CHEMBL3751755, “Developing steroidal aromatase inhibitors-an effective armament to win the battle against breast cancer” (Eur J Med Chem, 2015).

Tests used:
Aromatase [1] = target: T1, Aromatase (Homo sapiens, UniProt P11511); test: Competitive inhibition of human placental aromatase in presence of testosterone
T1 sequence (P11511 whole entry): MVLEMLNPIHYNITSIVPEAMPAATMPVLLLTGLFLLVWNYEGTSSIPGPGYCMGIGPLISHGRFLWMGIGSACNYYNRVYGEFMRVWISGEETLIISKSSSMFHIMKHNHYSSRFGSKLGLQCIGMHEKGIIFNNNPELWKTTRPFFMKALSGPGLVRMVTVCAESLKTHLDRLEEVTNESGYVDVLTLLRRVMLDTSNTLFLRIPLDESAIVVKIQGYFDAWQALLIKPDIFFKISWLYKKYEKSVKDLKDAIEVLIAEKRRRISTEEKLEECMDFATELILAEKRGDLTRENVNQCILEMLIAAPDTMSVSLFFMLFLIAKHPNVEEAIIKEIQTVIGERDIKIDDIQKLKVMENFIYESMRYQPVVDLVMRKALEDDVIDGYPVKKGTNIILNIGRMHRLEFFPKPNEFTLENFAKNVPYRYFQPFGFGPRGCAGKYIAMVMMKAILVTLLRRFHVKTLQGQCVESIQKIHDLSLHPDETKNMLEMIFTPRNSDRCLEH

Aromatase [2] = target: T1, Aromatase; test: Inhibition of human aromatase extracted from placental microsomes assessed as 3H2O formation from [1b,2b-3H] testosterone preincubated for 5 mins followed by protein addition measured at 7 to 21 mins by liquid scintillation counting analysis
Aromatase [3] = target: T1, Aromatase; test: Inhibition of human aromatase extracted from placental microsomes using [1beta-3H]androstenedione as substrate after 20 mins by scintillation counting analysis

C[C@]12CCC(=O)C3=C1C(=Nc1ccccc1S3)C[C@@H]1[C@@H]2CC[C@]2(C)C(=O)CC[C@@H]12
IC50 (Aromatase [1]): 42.3 µM

COc1cc(/C=C2\C[C@H]3[C@@H]4CCC5=CC(=O)CC[C@]5(C)[C@H]4CC[C@]3(C)C2=O)ccc1OCCCn1ccnc1
IC50 (Aromatase [2]): 4.4 µM

C[C@]12C=CC(=O)C=C1CC[C@@H]1[C@@H]2CC[C@]2(C)C(=O)/C(=C/c3ccc4c(c3)OCO4)C[C@@H]12
IC50 (Aromatase [3]): 6.4 µM
